Activity calls are given as the source filed them. The calls are words filed in the database; no cut-off is given here.
Key:
OCI-AML2 = test: Cytotoxicity against human OCI-AML2 cells after 72 hrs by MTS assay; format: functional, cell-based
[1] = Induction of apoptosis in human XG6 cells assessed as early apoptotic cells at 12.5 uM after 48 hrs by annexinV/propidium iodide staining (reference value: 8.62%); format: functional
[2] = Induction of apoptosis in human XG6 cells assessed as late apoptotic cells at 12.5 uM after 48 hrs by annexinV/propidium iodide staining (reference value: 7.78%); format: functional
[3] = molecular target: T1, Tyrosine-protein kinase JAK3 (Homo sapiens) (UniProt P52333); test: Inhibition of JAK3 (unknown origin) at 50 uM after 20 mins
T1 sequence (whole entry): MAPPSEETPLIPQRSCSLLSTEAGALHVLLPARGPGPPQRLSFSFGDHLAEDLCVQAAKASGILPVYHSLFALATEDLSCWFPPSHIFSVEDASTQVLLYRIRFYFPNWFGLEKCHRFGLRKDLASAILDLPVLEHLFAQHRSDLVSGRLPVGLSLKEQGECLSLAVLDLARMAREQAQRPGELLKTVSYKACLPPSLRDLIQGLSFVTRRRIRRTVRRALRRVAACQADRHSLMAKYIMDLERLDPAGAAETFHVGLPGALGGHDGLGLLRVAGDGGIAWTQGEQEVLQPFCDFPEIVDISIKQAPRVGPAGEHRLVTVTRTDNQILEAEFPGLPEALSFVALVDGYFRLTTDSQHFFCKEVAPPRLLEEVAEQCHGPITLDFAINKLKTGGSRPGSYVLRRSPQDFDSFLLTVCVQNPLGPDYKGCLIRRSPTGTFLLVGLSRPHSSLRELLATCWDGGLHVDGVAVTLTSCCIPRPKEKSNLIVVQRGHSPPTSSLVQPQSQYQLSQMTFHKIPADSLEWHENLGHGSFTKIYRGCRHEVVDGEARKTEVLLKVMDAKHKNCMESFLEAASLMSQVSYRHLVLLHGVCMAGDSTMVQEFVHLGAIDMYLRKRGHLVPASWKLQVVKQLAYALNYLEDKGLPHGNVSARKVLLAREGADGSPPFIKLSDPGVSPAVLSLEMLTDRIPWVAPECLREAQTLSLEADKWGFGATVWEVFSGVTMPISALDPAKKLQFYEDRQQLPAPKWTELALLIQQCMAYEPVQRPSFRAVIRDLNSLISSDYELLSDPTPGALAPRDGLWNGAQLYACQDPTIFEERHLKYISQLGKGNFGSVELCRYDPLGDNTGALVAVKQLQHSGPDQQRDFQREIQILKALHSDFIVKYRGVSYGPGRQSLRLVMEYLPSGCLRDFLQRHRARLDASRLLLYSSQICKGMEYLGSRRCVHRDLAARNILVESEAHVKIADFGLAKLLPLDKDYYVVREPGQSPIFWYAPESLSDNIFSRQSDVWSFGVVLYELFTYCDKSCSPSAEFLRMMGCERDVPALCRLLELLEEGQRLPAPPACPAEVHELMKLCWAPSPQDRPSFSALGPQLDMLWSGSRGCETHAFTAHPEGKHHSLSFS

[4] = molecular target: Leukocyte tyrosine kinase receptor (Homo sapiens, UniProt P29376); test: Inhibition of TYK1 (unknown origin) after 20 mins
Sequence of Leukocyte tyrosine kinase receptor (P29376 whole entry): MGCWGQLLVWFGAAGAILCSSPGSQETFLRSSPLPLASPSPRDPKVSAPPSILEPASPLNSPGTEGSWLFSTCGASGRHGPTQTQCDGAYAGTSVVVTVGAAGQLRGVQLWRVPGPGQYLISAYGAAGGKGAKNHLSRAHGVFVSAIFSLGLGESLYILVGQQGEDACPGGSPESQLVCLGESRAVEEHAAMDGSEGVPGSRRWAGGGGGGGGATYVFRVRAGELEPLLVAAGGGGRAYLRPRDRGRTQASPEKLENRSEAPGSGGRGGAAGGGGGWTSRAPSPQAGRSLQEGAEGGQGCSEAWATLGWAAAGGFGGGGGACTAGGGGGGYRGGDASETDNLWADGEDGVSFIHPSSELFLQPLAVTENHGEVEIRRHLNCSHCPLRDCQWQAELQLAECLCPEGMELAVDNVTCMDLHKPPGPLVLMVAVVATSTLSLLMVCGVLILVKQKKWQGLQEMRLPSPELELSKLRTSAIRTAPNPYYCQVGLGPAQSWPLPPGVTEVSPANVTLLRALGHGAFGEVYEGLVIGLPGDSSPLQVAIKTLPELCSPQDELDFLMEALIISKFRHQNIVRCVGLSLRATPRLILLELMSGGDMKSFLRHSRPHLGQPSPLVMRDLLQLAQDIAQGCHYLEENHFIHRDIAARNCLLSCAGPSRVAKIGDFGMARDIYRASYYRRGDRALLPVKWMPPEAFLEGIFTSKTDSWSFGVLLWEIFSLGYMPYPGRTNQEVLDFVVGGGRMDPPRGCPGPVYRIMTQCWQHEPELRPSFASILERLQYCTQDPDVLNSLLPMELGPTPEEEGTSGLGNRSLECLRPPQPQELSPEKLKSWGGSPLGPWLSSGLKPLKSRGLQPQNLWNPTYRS

[5] = Induction of apoptosis in human XG6 cells assessed as viable cells at 12.5 uM after 48 hrs by annexinV/propidium iodide staining (reference value: 83.3%); format: functional; settings: XG6, 48 h, read-out: Activity
JJN-3 [6] = test: Induction of apoptosis in human JJN-3 cells assessed as viable cells at 12.5 uM after 48 hrs by annexinV/propidium iodide staining (reference value: 75.9%); format: functional; settings: JJN-3, 48 h, read-out: Activity
[7] = molecular target: T2, Tyrosine-protein kinase JAK2 (Homo sapiens, UniProt O60674); test: Inhibition of JAK2 (unknown origin) after 20 mins
T2 sequence (O60674 whole entry): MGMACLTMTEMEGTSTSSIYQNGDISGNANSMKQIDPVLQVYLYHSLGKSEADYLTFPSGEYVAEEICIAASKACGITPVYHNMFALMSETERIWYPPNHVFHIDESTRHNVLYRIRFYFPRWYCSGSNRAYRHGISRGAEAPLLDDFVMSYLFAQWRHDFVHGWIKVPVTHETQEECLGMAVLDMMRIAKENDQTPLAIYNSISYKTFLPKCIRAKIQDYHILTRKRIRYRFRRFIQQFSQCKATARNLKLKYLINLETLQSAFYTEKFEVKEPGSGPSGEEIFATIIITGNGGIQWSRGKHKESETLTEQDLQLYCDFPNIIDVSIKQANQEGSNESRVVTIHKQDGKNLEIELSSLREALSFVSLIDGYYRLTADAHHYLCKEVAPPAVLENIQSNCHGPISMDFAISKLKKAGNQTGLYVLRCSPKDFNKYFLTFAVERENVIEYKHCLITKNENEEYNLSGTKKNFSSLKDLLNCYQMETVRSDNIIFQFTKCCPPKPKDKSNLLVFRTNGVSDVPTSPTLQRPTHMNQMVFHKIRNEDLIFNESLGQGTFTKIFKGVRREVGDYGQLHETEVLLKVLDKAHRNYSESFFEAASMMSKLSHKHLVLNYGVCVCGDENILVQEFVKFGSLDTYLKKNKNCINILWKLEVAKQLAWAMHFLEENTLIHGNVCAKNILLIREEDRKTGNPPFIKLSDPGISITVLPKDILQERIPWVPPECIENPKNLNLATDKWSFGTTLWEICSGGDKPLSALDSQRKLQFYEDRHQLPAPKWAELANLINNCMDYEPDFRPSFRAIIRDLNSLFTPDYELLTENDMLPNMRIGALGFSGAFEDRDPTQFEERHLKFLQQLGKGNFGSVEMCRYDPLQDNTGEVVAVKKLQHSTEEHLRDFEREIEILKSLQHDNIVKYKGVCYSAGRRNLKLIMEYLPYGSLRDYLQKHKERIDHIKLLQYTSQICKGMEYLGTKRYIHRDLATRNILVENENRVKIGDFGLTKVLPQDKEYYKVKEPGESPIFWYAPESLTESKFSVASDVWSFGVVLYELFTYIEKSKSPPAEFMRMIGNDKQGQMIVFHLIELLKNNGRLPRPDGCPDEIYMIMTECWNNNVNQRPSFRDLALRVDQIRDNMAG

[8] = Induction of apoptosis in human XG6 cells assessed as early apoptotic cells at 7.5 uM after 48 hrs by annexinV/propidium iodide staining (reference value: 8.62%); format: functional
[9] = molecular target: Tyrosine-protein kinase JAK1 (Homo sapiens) (UniProt P23458); test: Inhibition of JAK1 (unknown origin) at 100 uM after 20 mins
SK-MM-2 = test: Cytotoxicity against human SKMM-2 cells assessed as growth inhibition after 48 hrs by MTT assay; format: functional, cell-based
JJN-3 [10] = test: Induction of apoptosis in human JJN-3 cells assessed as early apoptotic cells at 12.5 uM after 48 hrs by annexinV/propidium iodide staining (reference value: 13.3%); format: functional
JJN-3 [11] = test: Cytotoxicity against human JJN-3 cells assessed as growth inhibition after 48 hrs by MTT assay; format: functional, cell-based
[12] = Induction of apoptosis in human XG6 cells assessed as viable cells at 7.5 uM after 48 hrs by annexinV/propidium iodide staining (reference value: 83.3%); format: functional; settings: XG6, 48 h, read-out: Activity
XG6 [13] = test: Cytotoxicity against human XG6 cells assessed as growth inhibition at 10 uM after 48 hrs by MTT assay; format: functional, cell-based
[14] = molecular target: Signal transducer and activator of transcription 3 (Homo sapiens) (UniProt P40763); test: Displacement of FAM-GpYLPQTV-NH2 from full-length Stat3 SH2 domain (unknown origin) up to 100 uM by fluorescence polarization
Sequence of Signal transducer and activator of transcription 3 (Homo sapiens) (P40763 whole entry, the tested form may be a part): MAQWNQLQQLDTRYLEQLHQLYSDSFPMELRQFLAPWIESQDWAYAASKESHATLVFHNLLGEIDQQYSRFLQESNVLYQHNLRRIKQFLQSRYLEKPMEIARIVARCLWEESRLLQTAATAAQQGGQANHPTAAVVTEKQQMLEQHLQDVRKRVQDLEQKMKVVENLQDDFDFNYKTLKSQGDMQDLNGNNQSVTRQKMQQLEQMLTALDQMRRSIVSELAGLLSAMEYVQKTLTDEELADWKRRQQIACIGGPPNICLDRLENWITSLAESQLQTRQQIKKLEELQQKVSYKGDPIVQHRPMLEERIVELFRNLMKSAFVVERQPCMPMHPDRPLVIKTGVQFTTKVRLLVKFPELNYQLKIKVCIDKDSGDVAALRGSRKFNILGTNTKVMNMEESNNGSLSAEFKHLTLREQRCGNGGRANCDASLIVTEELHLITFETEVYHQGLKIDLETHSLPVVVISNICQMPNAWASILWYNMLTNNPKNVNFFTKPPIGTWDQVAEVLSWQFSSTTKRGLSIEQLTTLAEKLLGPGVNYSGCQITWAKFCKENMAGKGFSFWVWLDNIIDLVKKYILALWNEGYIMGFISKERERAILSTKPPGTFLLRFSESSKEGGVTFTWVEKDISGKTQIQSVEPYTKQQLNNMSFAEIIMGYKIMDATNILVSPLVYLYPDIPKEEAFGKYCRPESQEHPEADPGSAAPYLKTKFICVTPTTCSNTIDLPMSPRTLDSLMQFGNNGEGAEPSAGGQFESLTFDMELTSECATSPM

JJN-3 [15] = test: Induction of apoptosis in human JJN-3 cells assessed as late apoptotic cells at 12.5 uM after 48 hrs by annexinV/propidium iodide staining (reference value: 9.59%); format: functional
JJN-3 [16] = test: Induction of apoptosis in human JJN-3 cells assessed as late apoptotic cells at 7.5 uM after 48 hrs by annexinV/propidium iodide staining (reference value: 9.59%); format: functional
[17] = molecular target: Signal transducer and activator of transcription 3 (Homo sapiens) (UniProt P40763); test: Displacement of FAM-GpYLPQTV-NH2 from full-length Stat3 SH2 domain (unknown origin) up to 400 uM by fluorescence polarization
[18] = molecular target: T2, Tyrosine-protein kinase JAK2; test: Inhibition of JAK2 (unknown origin) at 50 uM after 20 mins
[19] = molecular target: Signal transducer and activator of transcription 3 (Homo sapiens) (UniProt P40763); test: Inhibition of STAT3 phosphorylation in IL-6 stimulated human OPM2 cells at > IC50 after 30 mins by flow cytometry; format: cell-based; settings: OPM-2
[20] = Induction of apoptosis in human XG6 cells assessed as late apoptotic cells at 7.5 uM after 48 hrs by annexinV/propidium iodide staining (reference value: 7.78%); format: functional
JJN-3 [21] = test: Induction of apoptosis in human JJN-3 cells assessed as viable cells at 7.5 uM after 48 hrs by annexinV/propidium iodide staining (reference value: 75.9%); format: functional; settings: JJN-3, 48 h, read-out: Activity
JJN-3 [22] = test: Induction of apoptosis in human JJN-3 cells assessed as early apoptotic cells at 7.5 uM after 48 hrs by annexinV/propidium iodide staining (reference value: 13.3%); format: functional
XG6 [23] = test: Induction of apoptosis in human XG6 cells assessed as late apoptotic cells at 15 uM after 48 hrs by annexinV/propidium iodide staining; format: functional, cell-based
MDA-MB-468 = test: Cytotoxicity against human MDA-MB-468 cells after 72 hrs by MTS assay; format: functional, cell-based; settings: MDA-MB-468, 72 h
[24] = molecular target: AP2-associated protein kinase 1 (Homo sapiens) (UniProt Q2M2I8); test: Inhibition of AAK1 (unknown origin) at 2.5 uM after 20 mins
Sequence of AP2-associated protein kinase 1 (Homo sapiens) (Q2M2I8 whole entry, looked up): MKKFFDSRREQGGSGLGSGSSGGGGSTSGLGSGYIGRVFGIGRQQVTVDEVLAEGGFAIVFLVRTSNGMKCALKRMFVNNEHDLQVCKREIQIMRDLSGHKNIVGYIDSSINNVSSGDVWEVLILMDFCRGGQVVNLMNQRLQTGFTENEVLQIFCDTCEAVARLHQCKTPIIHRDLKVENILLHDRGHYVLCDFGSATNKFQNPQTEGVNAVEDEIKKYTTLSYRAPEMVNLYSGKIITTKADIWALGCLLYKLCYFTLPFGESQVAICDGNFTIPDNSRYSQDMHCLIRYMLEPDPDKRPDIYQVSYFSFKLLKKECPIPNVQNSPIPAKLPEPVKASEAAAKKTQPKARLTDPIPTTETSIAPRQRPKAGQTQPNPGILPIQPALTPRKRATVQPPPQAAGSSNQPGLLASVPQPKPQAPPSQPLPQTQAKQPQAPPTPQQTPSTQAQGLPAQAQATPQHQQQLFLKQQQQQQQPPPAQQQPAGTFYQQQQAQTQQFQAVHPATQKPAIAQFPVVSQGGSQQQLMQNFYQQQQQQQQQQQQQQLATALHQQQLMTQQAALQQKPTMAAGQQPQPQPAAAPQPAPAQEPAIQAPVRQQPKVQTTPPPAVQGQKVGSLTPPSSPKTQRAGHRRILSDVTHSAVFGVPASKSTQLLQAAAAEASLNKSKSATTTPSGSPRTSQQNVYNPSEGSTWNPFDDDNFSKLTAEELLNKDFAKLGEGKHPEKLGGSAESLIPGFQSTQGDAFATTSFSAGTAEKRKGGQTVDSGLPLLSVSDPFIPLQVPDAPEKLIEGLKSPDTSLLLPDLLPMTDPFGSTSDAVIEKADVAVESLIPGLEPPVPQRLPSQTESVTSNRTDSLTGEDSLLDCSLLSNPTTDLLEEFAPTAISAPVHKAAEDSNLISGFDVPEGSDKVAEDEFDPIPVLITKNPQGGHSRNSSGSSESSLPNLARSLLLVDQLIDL

[25] = molecular target: T3, Tyrosine-protein kinase JAK3 (Homo sapiens, UniProt P52333); test: Inhibition of JAK3 (unknown origin) after 20 mins
T3 sequence (P52333 whole entry): T1 sequence (whole entry)

DU-145 = test: Cytotoxicity against human DU145 cells after 72 hrs by MTS assay; format: functional, cell-based
[26] = system: Tyrosine-protein kinase ABL1 (Homo sapiens), P00519 [F317L]; test: Inhibition of ABL1 F317L mutant (unknown origin) at 2.5 uM after 20 mins
Sequence of Tyrosine-protein kinase ABL1 (Homo sapiens), P00519 [F317L] (P00519 whole entry F317L): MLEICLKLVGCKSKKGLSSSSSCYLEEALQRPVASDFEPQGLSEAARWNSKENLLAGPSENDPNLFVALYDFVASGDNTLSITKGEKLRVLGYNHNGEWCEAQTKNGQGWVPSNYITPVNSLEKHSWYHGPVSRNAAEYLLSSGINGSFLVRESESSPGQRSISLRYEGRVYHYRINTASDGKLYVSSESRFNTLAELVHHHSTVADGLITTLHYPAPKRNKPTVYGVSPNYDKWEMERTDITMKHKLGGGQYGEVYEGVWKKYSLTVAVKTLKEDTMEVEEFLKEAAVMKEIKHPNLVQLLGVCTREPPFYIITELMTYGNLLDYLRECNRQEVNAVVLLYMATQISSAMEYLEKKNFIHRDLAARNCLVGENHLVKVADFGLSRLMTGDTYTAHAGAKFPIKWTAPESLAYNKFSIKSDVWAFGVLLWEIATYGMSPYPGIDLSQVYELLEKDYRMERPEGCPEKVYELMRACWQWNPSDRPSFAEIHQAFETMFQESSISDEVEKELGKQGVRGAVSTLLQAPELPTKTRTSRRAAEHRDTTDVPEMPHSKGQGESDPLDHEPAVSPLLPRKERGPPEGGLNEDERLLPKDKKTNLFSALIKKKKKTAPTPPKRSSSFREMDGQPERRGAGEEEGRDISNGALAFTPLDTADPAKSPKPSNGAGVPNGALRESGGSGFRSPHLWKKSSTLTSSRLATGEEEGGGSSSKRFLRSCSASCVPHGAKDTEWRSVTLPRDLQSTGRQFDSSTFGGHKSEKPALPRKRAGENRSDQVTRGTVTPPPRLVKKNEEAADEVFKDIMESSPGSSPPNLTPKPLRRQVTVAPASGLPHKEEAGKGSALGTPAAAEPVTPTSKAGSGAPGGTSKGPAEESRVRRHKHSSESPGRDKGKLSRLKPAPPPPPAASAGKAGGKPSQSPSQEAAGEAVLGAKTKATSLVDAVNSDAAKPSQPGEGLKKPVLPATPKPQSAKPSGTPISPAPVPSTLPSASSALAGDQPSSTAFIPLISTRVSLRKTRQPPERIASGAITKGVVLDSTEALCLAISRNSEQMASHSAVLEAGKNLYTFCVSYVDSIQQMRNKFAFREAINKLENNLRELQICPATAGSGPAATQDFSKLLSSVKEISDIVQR

Q: Which Activity (OCI-AML2) does the source give for `NS(=O)(=O)OCCn1cnc2c(Nc3ccc(F)cc3)nc(NCc3ccc(C4CCCCC4)cc3)nc21` here?
A: Active

Q: What about the Activity [1] of the same compound?
A: 7.57%

Q: And the Activity [2]?
A: 74.4%

Q: And the inhibition [3]?
A: 85%

Q: And the IC50 [4]?
A: 10.6 µM

Q: And the viability at 12.5 µM [5]?
A: 1.98%

Q: And the viability at 12.5 µM (JJN-3 [6])?
A: 36.4%

Q: And the IC50 [7]?
A: 16.6 µM

Q: What about the Activity [8] of the same compound?
A: 22.7%

Q: And the inhibition [9]?
A: Active

Q: What about the “growth inhibition (GI)” value (SK-MM-2) of the same compound?
A: Active

Q: And the Activity (JJN-3 [10])?
A: 19.5%

Q: What about the “growth inhibition (GI)” value (JJN-3 [11]) of the same compound?
A: inactive

Q: What about the viability at 7.5 µM [12] of the same compound?
A: 53.8%

Q: And the “growth inhibition (GI)” value (XG6 [13])?
A: Active

Q: What about the inhibition [14] of the same compound?
A: inactive

Q: And the Activity (JJN-3 [15])?
A: 38.8%

Q: And the Activity (JJN-3 [16])?
A: 16%

Q: What about the inhibition [17] of the same compound?
A: inactive

Q: What about the inhibition [18] of the same compound?
A: 50%

Q: What about the inhibition [19] of the same compound?
A: inactive

Q: And the Activity [20]?
A: 23.2%

Q: And the viability at 7.5 µM (JJN-3 [21])?
A: 64.5%

Q: What about the Activity (JJN-3 [22]) of the same compound?
A: 17.6%

Q: What about the Activity (XG6 [23]) of the same compound?
A: Active

Q: What about the EC50 (MDA-MB-468) of the same compound?
A: 19.9 µM

Q: And the inhibition [24]?
A: 52%

Q: What about the IC50 [25] of the same compound?
A: 10.5 µM

Q: And the Activity (DU-145)?
A: Active

Q: What about the inhibition [26] of the same compound?
A: 50%
